Measurements published in patent US20240316047A1, “INHIBITORS OF RNA HELICASE DHX9 AND USES THEREOF” (ACCENT THERAPEUTICS, INC., priority 2022, published 2024).
pIC50: −log10 of the molar value.

Biological target: Human recombinant DHX9 protein (Homo sapiens (Human), UniProt Q08211)
Assay: DHX9 ATPase assay (ADP-Glo)
Assay type: biochemical
Conditions: for pIC50: read-out: DHX9 Biochemical Inflection Point

Sequence of Human recombinant DHX9 protein (Q08211 whole entry): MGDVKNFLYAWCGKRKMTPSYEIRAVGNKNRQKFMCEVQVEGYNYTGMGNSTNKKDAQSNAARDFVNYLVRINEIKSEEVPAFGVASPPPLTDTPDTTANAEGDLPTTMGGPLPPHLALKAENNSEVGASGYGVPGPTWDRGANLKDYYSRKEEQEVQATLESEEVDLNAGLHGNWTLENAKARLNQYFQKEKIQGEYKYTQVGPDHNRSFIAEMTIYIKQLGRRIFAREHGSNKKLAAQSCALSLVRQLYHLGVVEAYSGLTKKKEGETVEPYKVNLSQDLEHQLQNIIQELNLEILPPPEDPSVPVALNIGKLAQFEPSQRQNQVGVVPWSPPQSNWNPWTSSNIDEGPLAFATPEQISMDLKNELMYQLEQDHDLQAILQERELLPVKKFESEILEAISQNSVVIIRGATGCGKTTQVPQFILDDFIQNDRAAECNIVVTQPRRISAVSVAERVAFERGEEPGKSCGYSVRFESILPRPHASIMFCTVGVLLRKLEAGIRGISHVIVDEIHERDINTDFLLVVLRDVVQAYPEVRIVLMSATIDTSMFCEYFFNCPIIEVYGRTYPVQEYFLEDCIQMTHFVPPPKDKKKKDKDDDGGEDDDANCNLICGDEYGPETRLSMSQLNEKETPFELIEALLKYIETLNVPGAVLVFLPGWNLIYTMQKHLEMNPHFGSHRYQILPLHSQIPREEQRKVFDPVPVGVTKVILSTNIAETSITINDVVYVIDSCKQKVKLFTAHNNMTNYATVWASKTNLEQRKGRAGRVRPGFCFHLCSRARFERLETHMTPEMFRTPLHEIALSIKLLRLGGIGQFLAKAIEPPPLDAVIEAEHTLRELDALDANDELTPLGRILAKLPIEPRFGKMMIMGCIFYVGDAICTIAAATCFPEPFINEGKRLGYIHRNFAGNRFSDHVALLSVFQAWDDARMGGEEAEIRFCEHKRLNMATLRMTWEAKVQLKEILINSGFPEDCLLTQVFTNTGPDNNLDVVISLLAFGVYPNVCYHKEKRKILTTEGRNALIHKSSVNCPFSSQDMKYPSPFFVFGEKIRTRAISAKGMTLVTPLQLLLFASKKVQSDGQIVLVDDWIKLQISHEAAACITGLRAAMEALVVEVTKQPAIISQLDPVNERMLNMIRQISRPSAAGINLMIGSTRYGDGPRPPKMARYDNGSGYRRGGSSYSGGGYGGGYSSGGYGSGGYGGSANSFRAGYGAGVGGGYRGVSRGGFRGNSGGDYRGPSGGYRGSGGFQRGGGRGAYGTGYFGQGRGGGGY

SMILES	DHX9 Biochemical Max Inhibition [%]	pIC50
CS(=O)(=O)Nc1cc(Br)cc(NC(=O)c2cnn(-c3cc(C#N)ccc3OCc3ccccc3)c2)c1 [Example 67]	54	6.81
CS(=O)(=O)Nc1cc(Cl)cc(NC(=O)c2cnn(-c3ncccc3OCc3ccccc3)c2)c1 [Example 68]	68.7	7.62
CS(=O)(=O)Nc1cc(Cl)cc(NC(=O)c2cnn(-c3ncccc3OCc3ccc(F)cc3)c2)c1 [Example 69]	62.3	6.95
CS(=O)(=O)Nc1cc(Cl)cc(NC(=O)c2cnn(-c3ncccc3OCc3cccc(Cl)c3)c2)c1 [Example 70]	78.9	8.07
CS(=O)(=O)Nc1cc(F)cc(NC(=O)c2cc(Br)cs2)c1 [Example 71, 4-bromo-N-(3-fluoro-5-(methylsulfonamido)phenyl)thiophene-2-carboxamide]	77.8	6.77
CCS(=O)(=O)Nc1cc(F)cc(NC(=O)c2cc(Br)cs2)c1 [Example 72]	67.2	6.42
CS(=O)(=O)Nc1cc(F)cc(NC(=O)c2cc(-c3ccccc3)cs2)c1 [Example 73]	63	6.72
CCS(=O)(=O)Nc1cc(F)cc(NC(=O)c2cc(-c3ccccc3)cs2)c1 [Example 74]	57.7	6.59
CS(=O)(=O)Nc1cc(Cl)cc(NC(=O)c2cc(-c3ccccc3)cs2)c1 [Example 75]	55.5	
CS(=O)(=O)Nc1cc(Br)cc(NC(=O)c2cc(-c3cccnc3)cs2)c1 [Example 78]	56.2	7.50
CCn1cc(C(=O)Nc2cc(Cl)cc(NS(C)(=O)=O)c2)cc1-c1ccccc1 [Example 79, N-(3-chloro-5-(methylsulfonamido)phenyl)-1-ethyl-5-phenyl-1H-pyrrole-3-carboxamide]	67.8	6.84
CS(=O)(=O)Nc1cc(Cl)cc(NC(=O)c2cc(-c3ccccc3)n(CC(F)(F)F)c2)c1 [Example 80]	71.2	6.31
Cc1cccnc1-c1cc(C(=O)Nc2cc(Cl)cc(NS(C)(=O)=O)c2)cn1C [Example 81]	66.7	
Cn1cc(C(=O)Nc2cc(Cl)cc(NS(C)(=O)=O)c2)cc1-c1ncccn1 [Example 82]	69.4	8.04
Cn1cc(C(=O)Nc2cc(Cl)cc(NS(C)(=O)=O)c2)cc1Br [Example 83, 5-bromo-N-(3-chloro-5-(methylsulfonamido)phenyl)-1-methyl-1H-pyrrole-3-carboxamide]	60.7	7.32
Cc1cccnc1-c1cc(C(=O)Nc2cc(Br)cc(NS(C)(=O)=O)c2)cn1C [Example 84, N-(3-bromo-5-(methylsulfonamido)phenyl)-1-methyl-5-(3-methylpyridin-2-yl)-1H-pyrrole-3-carboxamide]	66.7	8.00
Cc1cc(C(=O)Nc2cc(Br)cc(NS(C)(=O)=O)c2)cn1C1CCCCC1 [Example 85, N-(3-bromo-5-(methylsulfonamido)phenyl)-1-cyclohexyl-5-methyl-1H-pyrrole-3-carboxamide]	59.5	7.00
CC(=O)N1CCN(c2ccc(-n3cc(C(=O)Nc4cc(Br)cc(NS(C)(=O)=O)c4)cn3)nc2)CC1 [Example 86, 1-(5-(4-acetylpiperazin-1-yl)pyridin-2-yl)-N-(3-bromo-5-(methylsulfonamido)phenyl)-1H-pyrazole-4-carboxamide]	51.5	7.74
CC(=O)N1CCN(c2cnc(-n3cc(C(=O)Nc4cc(Br)cc(NS(C)(=O)=O)c4)cn3)c(C)c2)CC1 [Example 87]	55.7	7.58
CS(=O)(=O)Nc1cc(Br)cc(NC(=O)c2cc(-c3ccccn3)n(CC#N)c2)c1 [Example 95, N-(3-bromo-5-methanesulfonamidophenyl)-1-(cyanomethyl)-5-(pyridin-2-yl)-1H-pyrrole-3-carboxamide]	59.2	7.69
CS(=O)(=O)Nc1cc(Br)cc(NC(=O)c2cnn(-c3ccccc3C(O)C(F)(F)F)c2)c1 (centres unmarked) [Example 103, N-(3-bromo-5-(methylsulfonamido)phenyl)-1-(2-(2,2,2-trifluoro-1-hydroxyethyl)phenyl)-1H-pyrazole-4-carboxamide]	49.5	6.34
CS(=O)(=O)Nc1cc(F)cc(NC(=O)c2cc(-c3cccnc3)cs2)c1 [Example 105, N-(3-fluoro-5-(methylsulfonamido)phenyl)-4-(pyridin-3-yl)thiophene-2-carboxamide]	71.7	7.10

Second part, the molecule after the results:

DHX9 Biochemical Max Inhibition [%]	pIC50	SMILES
54.2	8.15	CN1CCN(c2ccc(-n3cc(C(=O)Nc4cc(Br)cc(NS(C)(=O)=O)c4)cn3)nc2)CC1=O [Example 88]
64.9	7.84	CN(C)C(=O)N1CCN(c2ccc(-n3cc(C(=O)Nc4cc(Cl)cc(NS(C)(=O)=O)c4)cn3)nc2)CC1 [Example 89]
61.5	7.62	CS(=O)(=O)Nc1cc(Cl)cc(NC(=O)c2cnn(-c3ccc(N4CCCC4=O)cn3)c2)c1 [Example 90]
59.7	7.55	CS(=O)(=O)Nc1cc(Cl)cc(NC(=O)c2cnn(-c3cc(N4CCOCC4)ccn3)c2)c1 [Example 91]
61.1	7.66	CC1CN(c2ccc(-n3cc(C(=O)Nc4cc(Cl)cc(NS(C)(=O)=O)c4)cn3)nc2)CCO1 (centres unmarked) [Example 92]
70.6	8.77	Cc1cc(C(=O)Nc2cc(Cl)cc(NS(C)(=O)=O)c2)cn1-c1ccc(N2CCOCC2)cn1 [Example 93]
72.4	8.74	Cc1cc(C(=O)Nc2cc(Cl)cc(NS(C)(=O)=O)c2)cn1-c1ccc(N2CCN(C)C(=O)C2)cn1 [Example 94]
52.8	6.60	Cc1cccnc1-c1nc(C(=O)Nc2cc(Br)cc(NS(C)(=O)=O)c2)cn1C [Example 96, N-(3-bromo-5-(methylsulfonamido)phenyl)-1-methyl-2-(3-methylpyridin-2-yl)-1H-imidazole-4-carboxamide]
50.9	6.53	CS(=O)(=O)Nc1cc(Br)cc(NC(=O)c2ccc3c(c2)[nH]c(=O)n3Cc2ccccc2)c1 [Example 99, 1-benzyl-N-(3-bromo-5-(methylsulfonamido)phenyl)-2-oxo-2,3-dihydro-1H-benzo[d]imidazole-5-carboxamide]
61.8	6.12	CS(=O)(=O)Nc1cc(Cl)cc(NC(=O)c2cccc(-c3ccnc(Cl)c3)c2)c1 [Example 102, N-(3-chloro-5-(methylsulfonamido)phenyl)-3-(2-chloropyridin-4-yl)benzamide]
68	7.21	CS(=O)(=O)Nc1cc(Br)cc(NC(=O)c2cc(Cc3ccc[nH]3)cs2)c1 [Example 104, 4-((1H-pyrrol-2-yl)methyl)-N-(3-bromo-5-(methylsulfonamido)phenyl)-thiophene-2-carboxamide]
58.7	7.11	CS(=O)(=O)Nc1cc(Cl)cc(NC(=O)c2cc(-c3ccccc3O)cs2)c1 [Example 106]
59.8	6.68	CS(=O)(=O)Nc1cc(Cl)cc(NC(=O)c2cc(-c3cccc(F)c3)cs2)c1 [Example 108]
57.2	7.75	Cn1cc(C(=O)Nc2cc(Cl)cc(NS(C)(=O)=O)c2)cc1-c1ccccc1 [Example 109]
53.7	7.40	CCS(=O)(=O)Nc1cc(Cl)cc(NC(=O)c2cc(-c3cccnc3)cs2)c1 [Example 110]
68.2	6.60	CS(=O)(=O)Nc1cc(Cl)cc(NC(=O)c2cc(-c3ccccc3OCc3ccccc3)cs2)c1 [Example 111]
65.9	7.40	CCS(=O)(=O)Nc1cc(F)cc(NC(=O)c2cc(-c3ccccn3)cs2)c1 [Example 113]
66.4	7.36	CS(=O)(=O)Nc1cc(F)cc(NC(=O)c2cc(-c3ccccc3O)cs2)c1 [Example 114]
56.6		CS(=O)(=O)Nc1cc(Cl)cc(NC(=O)c2cc(-c3cccnc3)cs2)c1 [Example 116, N-(3-chloro-5-(methylsulfonamido)phenyl)-4-(pyridin-3-yl)thiophene-2-carboxamide]
55.5	6.98	CS(=O)(=O)Nc1cc(Cl)cc(NC(=O)c2cccc(-n3cccn3)c2)c1 [Example 117]
55.8	7.35	CS(=O)(=O)Nc1cc(Br)cc(NC(=O)c2cccc(-n3cccn3)c2)c1 [Example 118]
